Experiments:
Akt1 = molecular target: T1, Akt1 (Homo sapiens, UniProt P31749); assay: Akt1 kinase inhibition, LANCE TR-FRET; type: biochemical
T1 construct: purchased life technology lot11629928C (lot number only, catalogue number not given)
Protocol: (§1) Study 1: The Inhibitory Effect of the Compounds on the Activity of Akt1, Akt2 and Akt3
Akt1 protein (life technology # lot11629928C)
(§2) In this experiment, a homogeneous time-resolved fluorescence […] energy transfer (LANCE TR-FRET®) method was used. In the assay plate, enzymes, biotinylated polypeptide substrates and compound to be tested were mixed, and ATP was added to initiate the reaction and the mixture was incubated. After that, EDTA was added to terminate the reaction while an Eu-labeled antibody was added to carry out the reaction and the reaction was then detected. The assay plate was analyzed by PE company's Envision, and the analysis mode was TR-FRET. The data were represented by fluorescence signals at 665 nm and 615 nm, respectively.
(§3) Compound formulation: compound to be tested and the reference compound were diluted with 100% DMSO, the initial concentration of the compound was 10 uM, and diluted by 10 times in a 3-fold gradient. Transfer the compound to the cell plate and duplicate each well.
(§4) Kinase assay: the enzyme and substrate were mixed with different concentrations of pre-diluted compounds. […] Leave at room temperature for 15 min and diplicate each concentration. ATP was added, and the final concentrations were 36 uM, 360 uM and 160 uM in Akt1, Akt2, and Akt3 kinase reactions, respectively, and the reaction was carried out for 90 min at room temperature (in which negative and positive controls were set). After the reaction was completed, the antibody was added and the mixture was detected, and the cells were incubated for 60 min at room temperature, and then collected by Evnvision. Data analysis and fitting according to *Lfit5 software.

Akt2 = molecular target: T2, Akt2 (Homo sapiens, UniProt P31751); assay: Akt2 kinase inhibition, LANCE TR-FRET; type: biochemical; conditions: Akt2 2 nM, ATP 360 uM, 90 min at room temperature
T2 construct: purchased life technology lot 28870GG (lot number only, catalogue number not given)
T2 sequence (P31751 whole entry): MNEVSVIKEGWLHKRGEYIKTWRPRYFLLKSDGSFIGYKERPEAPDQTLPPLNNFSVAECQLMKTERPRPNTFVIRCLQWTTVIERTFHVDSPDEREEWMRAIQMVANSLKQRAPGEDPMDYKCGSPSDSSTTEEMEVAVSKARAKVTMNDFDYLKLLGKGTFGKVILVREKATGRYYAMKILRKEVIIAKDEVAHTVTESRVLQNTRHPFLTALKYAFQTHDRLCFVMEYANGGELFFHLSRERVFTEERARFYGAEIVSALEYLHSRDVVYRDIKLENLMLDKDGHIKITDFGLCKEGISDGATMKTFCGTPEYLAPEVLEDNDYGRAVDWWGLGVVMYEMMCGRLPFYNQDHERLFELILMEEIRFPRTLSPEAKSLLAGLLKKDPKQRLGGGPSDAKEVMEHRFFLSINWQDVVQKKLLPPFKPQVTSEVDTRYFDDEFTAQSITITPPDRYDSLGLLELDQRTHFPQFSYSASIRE
Protocol: as §1
Akt2 protein (life technology # lot 28870GG)
as §2, §3, §4

Akt3 = molecular target: T3, Akt3 (Homo sapiens, UniProt Q9Y243); assay: Akt3 kinase inhibition, LANCE TR-FRET; type: biochemical; conditions: Akt3 2 nM, ATP 160 uM, 90 min at room temperature
T3 construct: purchased life technology lot 1715050B (lot number only, catalogue number not given)
T3 sequence (Q9Y243 whole entry): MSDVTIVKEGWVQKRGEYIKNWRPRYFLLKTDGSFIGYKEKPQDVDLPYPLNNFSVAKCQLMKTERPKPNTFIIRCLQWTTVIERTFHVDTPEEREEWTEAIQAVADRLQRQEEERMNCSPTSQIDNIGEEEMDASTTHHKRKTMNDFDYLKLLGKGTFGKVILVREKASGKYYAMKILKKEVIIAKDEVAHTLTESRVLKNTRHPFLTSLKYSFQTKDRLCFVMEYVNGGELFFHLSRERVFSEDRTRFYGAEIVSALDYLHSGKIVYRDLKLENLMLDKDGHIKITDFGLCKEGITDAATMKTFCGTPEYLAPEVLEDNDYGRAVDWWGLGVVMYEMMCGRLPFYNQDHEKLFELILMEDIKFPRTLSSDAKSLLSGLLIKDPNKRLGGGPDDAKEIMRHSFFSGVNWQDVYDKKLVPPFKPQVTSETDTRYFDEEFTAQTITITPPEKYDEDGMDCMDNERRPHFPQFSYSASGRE
Protocol: as §1
Akt3 protein (life technology # lot 1715050B)
as §2, §3, §4

LNCaP cells = assay: LNCaP cell activity, CellTiter-Glo live cell detection; type: cell-based; conditions: Homo sapiens, 72 h, 1000 cells per well, incubated 3 days, starting concentration 10 uM
Protocol: Study 2: inhibitory effects of compounds on LNCaP cell activity
The amount of ATP directly reflects the number and the state of the cells, and the number of live cells can be detected by quantitatively measuring ATP. The live cell assay kit contains luciferase and its substrate. Through the participation of ATP, luciferase can catalyze the substrate, emit a stable optical signal, and the amount of ATP in the cell was determined by detecting the intensity of the signal. Wherein, the optical signal is proportional to the amount of ATP in the cell, and ATP is positively correlated with the number of live cells, so that the cell proliferation can be detected. The assay board is analyzed by PE company's Envision.
LNCaP cell was separately seeded in a 384-well plate, each well contains 1000 cells. The cell plate was placed in a carbon dioxide incubator and incubated overnight.
A duplicated experiment was performed with 10 concentrations of compound in a 3-fold dilution with Bravo.
Compound was transferred to the cell plate with a starting concentration of 10 uM. The cell plate was incubated in a carbon dioxide incubator for 3 days.
The Promega CellTiter-Glo reagent was added to the cell plate and incubated for 10 min at room temperature to stabilize the optical signal. Read the data by a PerkinElmer Envision multi-label analyzer.

T1 sequence (P31749 whole entry): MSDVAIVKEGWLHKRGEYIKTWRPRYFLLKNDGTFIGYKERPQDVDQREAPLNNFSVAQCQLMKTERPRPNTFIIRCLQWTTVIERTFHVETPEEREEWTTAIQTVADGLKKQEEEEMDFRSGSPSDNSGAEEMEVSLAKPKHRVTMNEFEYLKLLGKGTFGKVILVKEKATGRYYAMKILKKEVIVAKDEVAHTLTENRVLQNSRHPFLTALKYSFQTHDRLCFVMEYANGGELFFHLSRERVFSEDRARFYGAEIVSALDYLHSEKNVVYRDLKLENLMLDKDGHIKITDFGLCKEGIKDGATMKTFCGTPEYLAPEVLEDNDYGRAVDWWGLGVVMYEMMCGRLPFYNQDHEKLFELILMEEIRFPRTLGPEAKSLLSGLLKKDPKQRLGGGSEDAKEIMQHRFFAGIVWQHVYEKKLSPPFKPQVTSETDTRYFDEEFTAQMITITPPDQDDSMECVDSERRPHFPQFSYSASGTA

Compound	IC50 (Akt1)	IC50 (Akt2)	IC50 (Akt3)	IC50 (LNCaP cells)
NC[C@H](Cc1cccc(F)c1)NC(=O)c1cc2c(s1)CCCn1ncc(Cl)c1-2 [Embodiment 1]	0.36 nM	24 nM	21 nM	58 nM
NC[C@H](Cc1cccnc1)NC(=O)c1cc2c(s1)CCCn1ncc(Cl)c1-2 [Embodiment 2]	6.64 nM	266 nM	294 nM	666 nM
NC[C@H](Cc1ccncc1)NC(=O)c1cc2c(s1)CCCn1ncc(Cl)c1-2 [Embodiment 3]	39 nM	163 nM	1130 nM	2010 nM
NC[C@H](Cc1cccc(Cl)c1)NC(=O)c1cc2c(s1)CCCn1ncc(Cl)c1-2 [Embodiment 4]	0.6 nM	32 nM	40 nM	182 nM
NC[C@H](Cc1ccccc1F)NC(=O)c1cc2c(s1)CCCn1ncc(Cl)c1-2 [Embodiment 6]	3.78 nM	101 nM	95 nM	297 nM
NC[C@H](Cc1ccc(Cl)cc1)NC(=O)c1cc2c(s1)CCCn1ncc(Cl)c1-2 [Embodiment 8]	3.62 nM	107 nM	69 nM	534 nM
NC[C@H](Cc1ccc(Cl)c(Cl)c1)NC(=O)c1cc2c(s1)CCCn1ncc(Cl)c1-2 [Embodiment 9]	1.39 nM	25 nM	44 nM	236 nM
NC[C@H](Cc1ccccc1C(F)(F)F)NC(=O)c1cc2c(s1)CCCn1ncc(Cl)c1-2 [Embodiment 10]	0.63 nM	17 nM	29 nM	159 nM
NC[C@H](Cc1cccc(C(F)(F)F)c1)NC(=O)c1cc2c(s1)CCCn1ncc(Cl)c1-2 [Embodiment 11]	2.28 nM	66 nM	80 nM	287 nM
CN(C)C[C@H](Cc1cccc(F)c1)NC(=O)c1cc2c(s1)CCCn1ncc(Cl)c1-2 [Embodiment 12]	116 nM	4830 nM	867 nM	4890 nM
NC[C@@H](NC(=O)c1cc2c(s1)CCCn1ncc(Cl)c1-2)c1ccccc1 [Embodiment 13]	11 nM	188 nM	189 nM	514 nM
NC[C@H](Cc1ccccn1)NC(=O)c1cc2c(s1)CCCn1ncc(Br)c1-2 [Embodiment 20]	11 nM	428 nM	374 nM	487 nM
Cc1cnn2c1-c1cc(C(=O)N[C@H](CN)Cc3cccc(F)c3)sc1CCC2 [Embodiment 22]	2.18 nM	26 nM	60 nM	61 nM
NC[C@H](Cc1cccc(F)c1)NC(=O)c1cc2c(s1)CCCn1ncc(-c3ccccc3)c1-2 [Embodiment 23]	8.84 nM	372 nM	52 nM	1340 nM
NC[C@H](Cc1cccc(F)c1)NC(=O)c1cc2c(s1)CCCn1ncc(-c3cccnc3)c1-2 [Embodiment 24]	67.4 nM	1860 nM	398 nM	3560 nM
CCc1cnn2c1-c1cc(C(=O)N[C@H](CN)Cc3cccc(F)c3)sc1CCC2 [Embodiment 25]	5.22 nM	143 nM	83 nM	389 nM
NC[C@H](Cc1cccc(F)c1)NC(=O)c1cc2c(s1)CCCn1ncc(C(F)(F)F)c1-2 [Embodiment 27]	14.7 nM	304 nM	119 nM	971 nM
NCC(CCc1ccccc1)NC(=O)c1cc2c(s1)CCCn1ncc(Cl)c1-2 (centres unmarked) [Embodiment 29]	36 nM	1100 nM	783 nM	2620 nM
COC1CCn2ncc(Cl)c2-c2cc(C(=O)N[C@H](CN)Cc3cccc(F)c3)sc21 (some centres unmarked) [Embodiment 30]	12.4 nM	281 nM	485 nM	654 nM
NC[C@H](Cc1cccc(F)c1)NC(=O)c1cc2c(s1)C(=O)CCn1ncc(Cl)c1-2 [Embodiment 31]	124 nM	3130 nM	819 nM	5710 nM
NC[C@H](Cc1cccc(F)c1)NC(=O)c1cc2c(s1)C(O)CCn1ncc(Cl)c1-2 (some centres unmarked) [Embodiment 32]	117 nM	2930 nM	814 nM	> 10000 nM
NC[C@H](Cc1cccc(F)c1)NC(=O)c1cc2c(s1)C(F)(F)CCn1ncc(Cl)c1-2 [Embodiment 33]	13 nM	490 nM	108 nM	1750 nM
CNC[C@H](Cc1cccc(F)c1)NC(=O)c1cc2c(s1)CCCn1ncc(Cl)c1-2 [Embodiment 34]	36 nM	983 nM	513 nM	2360 nM
NC[C@H](Cc1cccc(F)c1)NC(=O)c1cc2n(n1)CCCn1ncc(Cl)c1-2 [Embodiment 36]	9.78 nM	235 nM	195 nM	902 nM

Other lines, results leading:

IC50 (Akt1)	IC50 (Akt2)	IC50 (Akt3)	IC50 (LNCaP cells)	Compound
2.54 nM	77 nM	77 nM	199 nM	NC[C@H](Cc1ccc(F)cc1F)NC(=O)c1cc2c(s1)CCCn1ncc(Cl)c1-2 [Embodiment 5]
0.71 nM	19 nM	24 nM	59 nM	NC[C@H](Cc1ccc(F)c(F)c1)NC(=O)c1cc2c(s1)CCCn1ncc(Cl)c1-2 [Embodiment 7]
0.33 nM	11 nM	34 nM	36 nM	NC[C@H](Cc1cccc(F)c1)NC(=O)c1cc2c(s1)CCCn1ncc(Br)c1-2 [Embodiment 14]
0.67 nM	20 nM	16 nM	85 nM	NC[C@H](Cc1ccc(F)c(F)c1F)NC(=O)c1cc2c(s1)CCCn1ncc(Br)c1-2 [Embodiment 15]
0.85 nM	45 nM	45 nM	233 nM	NC[C@H](Cc1cccc(F)c1F)NC(=O)c1cc2c(s1)CCCn1ncc(Br)c1-2 [Embodiment 16]
0.68 nM	38 nM	41 nM	230 nM	NC[C@H](Cc1cc(F)ccc1F)NC(=O)c1cc2c(s1)CCCn1ncc(Br)c1-2 [Embodiment 17]
0.27 nM	8 nM	10 nM	77 nM	NC[C@H](Cc1ccc(F)c(F)c1)NC(=O)c1cc2c(s1)CCCn1ncc(Br)c1-2 [Embodiment 18]
0.03 nM	8 nM	8.7 nM	23 nM	NC[C@H](Cc1cc(F)cc(F)c1)NC(=O)c1cc2c(s1)CCCn1ncc(Br)c1-2 [Embodiment 19]
13.3 nM	312 nM	98 nM	615 nM	NC[C@H](Cc1ccc(F)c(F)c1)NC(=O)c1cc2c(o1)CCCn1ncc(Cl)c1-2 [Embodiment 21]
33.3 nM	589 nM	286 nM	1420 nM	NC[C@H](Cc1cccc(F)c1)NC(=O)c1cc2c(s1)CCCn1ncc(F)c1-2 [Embodiment 28]
0.43 nM	22 nM	34 nM	150 nM	Cc1cnn2c1-c1cc(C(=O)N[C@H](CN)Cc3ccc(F)c(F)c3)sc1CCC2 [Embodiment 35]
1.73 nM	35 nM	29 nM	–	NC[C@H](Cc1ccc(F)c(F)c1)NC(=O)c1cc2c(s1)OCCn1ncc(Br)c1-2 [Embodiment 37]

Source: patent US10654868B2, “Dihydropyrazole azepine compound serving as Akt inhibitor” (HARBIN ZHENBAO PHARMACEUTICAL CO., LTD., priority 2016, dated 2020)
